Our source for the GI50 values is ChEMBL document CHEMBL1201862, “PubChem BioAssay data set” (2004).

Among the test systems are SK-MEL-28; DU-145; MDA-MB-231; IGROV-1; KM12; U-251; OVCAR-5; SF-268; HCT-15; NCI-H226; MDA-MB-435; BT-549; A498; Malme-3M; A549; HL-60; SK-MEL-5; SN12C; SR; TK-10.
Common to all, as to test: growth of human tumour cells (NCI), 48 h

The structures appear in SMILES notation.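 Results reflect a 48-hour exposure of cells in 96-well plates to compound at five concentrations. Here, GI50 denotes the concentration required for 50% inhibition of growth.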 Calls of active or inactive are those of the source. Cut-off read from the data, not from the text of the source: active = GI50 up to about 1.1 µM and inactive = higher.

For `O=C(O)C(Cl)(c1ccccc1)c1ccccc1`, the GI50 with SK-MEL-28, with DU-145, in the assay with MDA-MB-231, in the assay on IGROV-1, with KM12 and in the assay on U-251 was > 100 µM (inactive) throughout. The GI50 is > 100 µM (inactive) with OVCAR-5; > 100 µM (inactive) in the assay on SF-268; above 100 µM in the assay on HCT-15; > 100 µM (inactive) in the assay on NCI-H226; > 100 µM (inactive) in the assay with MDA-MB-435; > 100 µM (inactive) in the assay on BT-549. In addition, the GI50 with A498, in the assay with Malme-3M, in the assay with A549, with HL-60, in the assay on SK-MEL-5 and in the assay with SN12C was > 100 µM (inactive) throughout. In addition, the GI50 in the assay on SR and in the assay with TK-10 was > 100 µM (inactive) in each case.
